The assay concerns the target T1, full-length human PKCι (Homo sapiens, UniProt P41743).
T1 construct: Recombinant, full-length human PKCι expressed in Sf21 insect cells is also commercially available; purchased; host or cells: Sf21 insect cells
T1 sequence (P41743 1-596): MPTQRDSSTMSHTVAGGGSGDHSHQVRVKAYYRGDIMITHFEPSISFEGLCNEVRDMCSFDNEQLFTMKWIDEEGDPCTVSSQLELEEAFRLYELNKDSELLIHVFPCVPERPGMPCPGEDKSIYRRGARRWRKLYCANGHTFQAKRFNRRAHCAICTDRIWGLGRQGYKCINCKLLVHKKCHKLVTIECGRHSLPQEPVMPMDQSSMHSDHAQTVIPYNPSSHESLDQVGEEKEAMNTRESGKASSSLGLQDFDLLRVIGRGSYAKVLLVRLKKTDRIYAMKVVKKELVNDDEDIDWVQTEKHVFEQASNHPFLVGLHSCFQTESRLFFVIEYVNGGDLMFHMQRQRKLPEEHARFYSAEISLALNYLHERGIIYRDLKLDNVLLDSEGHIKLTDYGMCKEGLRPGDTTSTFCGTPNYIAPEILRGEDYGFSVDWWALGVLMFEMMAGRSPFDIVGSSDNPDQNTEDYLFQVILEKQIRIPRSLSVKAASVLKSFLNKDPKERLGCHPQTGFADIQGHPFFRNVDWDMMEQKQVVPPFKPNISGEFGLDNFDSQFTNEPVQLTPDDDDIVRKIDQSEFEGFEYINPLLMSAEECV
Kind of assay: PKCι IC50 IMAP assay, full-length PKCι at 150 μM ATP. Particulars: read-out: IC50 in IMAP assay against full length PKCi at 150 μM ATP. It counts as biochemical. The procedure, abridged: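 Compounds in 4% final DMSO are mixed with Sf21-derived full-length human PKCι (typically 15 pM) and 100 nM FAM-labelled pseudosubstrate peptide, then started with 150 μM ATP. Reaction runs 60 min at room temperature, is quenched with IMAP development reagent for 2 h, and fluorescence polarisation is measured to derive IC50.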

Where only a bound is given, the exact number is not on record here.

Consider `COc1cncc2nc(-c3ccncc3)nc(N3CCNC(C(=O)NCCc4ccccc4)C3)c12` (centres unmarked) [Example 158, 4-(5-Methoxy-2-pyridin-4-yl-pyrido[3,4-d]pyrimidin-4-yl)-piperazine-2-carboxylic acid phenethyl-amide], for which the IC50 was in the range of 1000 to 10000 nM.
In the case of `CC(C)C(=O)Nc1cc(-c2nc(N3CCNCC3)c3c(C4CC4)cncc3n2)ccn1` [Example 583, N-[4-(5-Cyclopropyl-4-piperazin-1-yl-pyrido[3,4-d]pyrimidin-2-yl)-pyridin-2-yl]-isobutyramide], the IC50 is less than 100 nM.
In the case of `CNC(=O)C1CCN(c2nc(-c3ccnc(Nc4c(F)cccc4F)c3)nc3cncc(C4CC4)c23)CC1` [Example 669, 1-{5-Cyclopropyl-2-[2-(2,6-difluoro-phenylamino)-pyridin-4-yl]-pyrido[3,4-d]pyrimidin-4-yl}-piperidine-4-carboxylic acid methylamide], the IC50 fell in the range of 1000 to 10000 nM.
With `COc1cncc2nc(-c3ccnc(NC(=O)Cc4cccc(N)c4)c3)nc(N[C@@H]3CCNC3)c12` [Example 325, 2-(3-Amino-phenyl)-N-{4-[5-methoxy-4-((R)-pyrrolidin-3-ylamino)-pyrido[3,4-d]pyrimidin-2-yl]-pyridin-2-yl}-acetamide], the IC50 was in the range of 10000 to 40000 nM.
For the molecule `N[C@@H](CNc1nc(-c2ccncc2)nc2c(-c3ccccn3)nccc12)Cc1ccccc1` [Example 122, (R)-3-Phenyl-N^1-(2-pyridin-4-yl-8-pyridin-2-yl-pyrido[3,4-d]pyrimidin-4-yl)-propane-1,2-diamine], the IC50 was 100 to 1000 nM.
As to `Brc1cncc2nc(-c3ccncc3)nc(N3CCNCC3)c12` [Example 133, 1-[5-bromo-2-(pyridin-4-yl)pyrido[3,4-d]pyrimidin-4-yl]piperazine], the concentration for half-maximal inhibition (IC50) is less than 100 nM.
For the molecule `FC(F)(F)c1cc2c(-c3nc(N4CCCCC4)c4c(C5CC5)cncc4n3)ccnc2[nH]1` [Example 1237, 5-Cyclopropyl-4-piperidin-1-yl-2-(2-trifluoromethyl-1H-pyrrolo[2,3-b]pyridin-4-yl)-pyrido[3,4-d]pyrimidine], the half-inhibitory concentration (IC50) was in the range of 100 to 1000 nM.
For `O=C(Cc1ccccc1)Nc1cc(-c2nc(N3CCNCC3)c3c(C4CC4)cncc3n2)ccn1` [Example 612, N-[4-(5-Cyclopropyl-4-piperazin-1-yl-pyrido[3,4-d]pyrimidin-2-yl)-pyridin-2-yl]-2-phenyl-acetamide], the IC50 is less than 100 nM.
Take `Fc1ccccc1Nc1cc(-c2nc(N3CCNCC3)c3c(Nc4ccccc4F)cncc3n2)ccn1` [Example 248, (2-Fluoro-phenyl)-{2-[2-(2-fluoro-phenylamino)-pyridin-4-yl]-4-piperazin-1-yl-pyrido[3,4-d]pyrimidin-5-yl}-amine]: the IC50 is less than 100 nM.
As to `CN(C)C(=O)C1CCN(c2nc(-c3ccnc(Nc4c(F)cccc4F)c3)nc3cncc(C4CC4)c23)CC1` [Example 686, 1-{5-Cyclopropyl-2-[2-(2,6-difluoro-phenylamino)-pyridin-4-yl]-pyrido[3,4-d]pyrimidin-4-yl}-piperidine-4-carboxylic acid dimethylamide], the 50% inhibitory concentration (IC50) was 100 to 1000 nM.
Then `c1ccc(Nc2cc(-c3nc(N4CCCNCC4)c4c(C5CC5)cncc4n3)ccn2)cc1` [Example 632, [4-(5-Cyclopropyl-4-[1,4]diazepan-1-yl-pyrido[3,4-d]pyrimidin-2-yl)-pyridin-2-yl]-phenyl-amine], with less than 100 nM.
With `CN(CC1CCNCC1)c1nc(-c2ccnc(Nc3ncc(F)cc3F)c2)nc2cncc(C3CC3)c12` [Example 2167, {5-Cyclopropyl-2-[2-(3,5-difluoro-pyridin-2-ylamino)-pyridin-4-yl]-pyrido[3,4-d]pyrimidin-4-yl}-methyl-piperidin-4-ylmethyl-amine], the IC50 was less than 100 nM.
For the molecule `COc1cncc2nc(-c3ccnc(Nc4ccccc4)c3)nc(N3CCC[C@@H](O)C3)c12` [Example 428, (R)-1-[5-Methoxy-2-(2-phenylamino-pyridin-4-yl)-pyrido[3,4-d]pyrimidin-4-yl]-piperidin-3-ol], the IC50 was in the range of 1000 to 10000 nM.
With `CNCCNc1nc(-c2ccnc(Nc3c(F)cccc3F)c2)nc2cncc(C3CC3)c12` [Example 775, N-{5-Cyclopropyl-2-[2-(2,6-difluoro-phenylamino)-pyridin-4-yl]-pyrido[3,4-d]pyrimidin-4-yl}-N′-methyl-ethane-1,2-diamine], the 50% inhibitory concentration (IC50) is less than 100 nM.
In the case of `c1ccc2c(Nc3cc(-c4nc(N5CCNCC5)c5c(C6CC6)cncc5n4)ccn3)cccc2c1` [Example 2059, [4-(5-Cyclopropyl-4-piperazin-1-yl-pyrido[3,4-d]pyrimidin-2-yl)-pyridin-2-yl]-naphthalen-1-yl-amine], the IC50 was less than 100 nM.
As for `Nc1ccc(CC(=O)Nc2cc(-c3nc(N[C@@H]4CCNC4)c4ccncc4n3)ccn2)cc1` [Example 314, 2-(4-Amino-phenyl)-N-{4-[4-((R)-pyrrolidin-3-ylamino)-pyrido[3,4-d]pyrimidin-2-yl]-pyridin-2-yl}-acetamide], the IC50 was less than 100 nM.
Consider `FC(F)(F)C1(c2cc3c(-c4nc(N5CCNCC5)c5c(C6CC6)cncc5n4)ccnc3[nH]2)CC1` [Example 1238, 5-Cyclopropyl-4-piperazin-1-yl-2-[2-(1-trifluoromethyl-cyclopropyl)-1H-pyrrolo[2,3-b]pyridin-4-yl]-pyrido[3,4-d]pyrimidine], for which the half-maximal inhibitory concentration (IC50) is less than 100 nM.
As to `C[C@@H](Nc1cc(-c2nc(N3CCNC(C)(C)C3)c3c(C4CC4)cncc3n2)ccn1)C1CC1` [Example 2006, {4-[5-Cyclopropyl-4-(3,3-dimethyl-piperazin-1-yl)-pyrido[3,4-d]pyrimidin-2-yl]-pyridin-2-yl}-((R)-1-cyclopropyl-ethyl)-amine], the IC50 is less than 100 nM.
On to `Cc1ccnc(Nc2cc(-c3nc(N4CCNCC4)c4c(Cl)cncc4n3)ccn2)c1` [Example 256, [4-(5-Chloro-4-piperazin-1-yl-pyrido[3,4-d]pyrimidin-2-yl)-pyridin-2-yl]-(4-methyl-pyridin-2-yl)-amine], for which the IC50 was less than 100 nM.
The value for `CC1(C)CN(c2nc(-c3ccnc(Nc4c(F)cccc4F)c3)nc3cncc(C4CC4)c23)CCN1` [Example 718, {4-[5-Cyclopropyl-4-(3,3-dimethyl-piperazin-1-yl)-pyrido[3,4-d]pyrimidin-2-yl]-pyridin-2-yl}-(2,6-difluoro-phenyl)-amine] was less than 100 nM; that for `COCc1cc2c(-c3nc(N4CCNCC4)c4c(C5CC5)cncc4n3)ccnc2[nH]1` [Example 2075, 5-Cyclopropyl-2-(2-methoxymethyl-1H-pyrrolo[2,3-b]pyridin-4-yl)-4-piperazin-1-yl-pyrido[3,4-d]pyrimidine] was less than 100 nM; that for `N#Cc1ccnc(Nc2cc(-c3nc(N4CCC(O)C(O)C4)c4c(C5CC5)cncc4n3)ccn2)c1` (racemic) [Example 485, (±)-2-{4-[5-Cyclopropyl-4-cis-3,4-dihydroxy-piperidin-1-yl)-pyrido[3,4-d]pyrimidin-2-yl]-pyridin-2-ylamino}-isonicotinonitrile] was less than 100 nM.
In the case of `c1cc(-c2nc(N3CCN[C@@H](C4CC4)C3)c3c(C4CC4)cncc3n2)c2cc[nH]c2n1` [Example 1220, 5-Cyclopropyl-4-((S)-3-cyclopropyl-piperazin-1-yl)-2-(1H-pyrrolo[2,3-b]pyridin-4-yl)-pyrido[3,4-d]pyrimidine], the half-inhibitory concentration (IC50) is less than 100 nM.
`COc1ccccc1Nc1cc(-c2nc(N3CCNCC3)c3c(C4CC4)cncc3n2)ccn1` [Example 515, [4-(5-Cyclopropyl-4-piperazin-1-yl-pyrido[3,4-d]pyrimidin-2-yl)-pyridin-2-yl]-(2-methoxy-phenyl)-amine]: the IC50 was less than 100 nM.
For `c1cc2c(N[C@@H]3CCNC3)nc(-c3ccnc4[nH]ccc34)nc2cn1` [Example 1208, (R)-Pyrrolidin-3-yl-[2-(1H-pyrrolo[2,3-b]pyridin-4-yl)-pyrido[3,4-d]pyrimidin-4-yl]-amine], the concentration for half-maximal inhibition (IC50) lay in the range of 100 to 1000 nM.
For the molecule `c1ccc(C[C@H]2CN(c3nc(-c4ccncc4)nc4cnccc34)CCN2)cc1` [Example 16, (3S)-3-benzyl-1-[2-(pyridin-4-yl)pyrido[3,4-d]-pyrimidin-4-yl]-piperazine], the IC50 was 100 to 1000 nM.
On to `COc1cncc2nc(-c3ccnc(Nc4ncccc4F)c3)nc(N3CCNCC3)c12` [Example 411, (3-Fluoro-pyridin-2-yl)-[4-(5-methoxy-4-piperazin-1-yl-pyrido[3,4-d]pyrimidin-2-yl)-pyridin-2-yl]-amine], for which the IC50 is less than 100 nM.
`FC(F)(F)c1cc2c(-c3nc(NC4CCNC4)c4c(C5CC5)cncc4n3)ccnc2[nH]1` (stereo in doubt) [Example 2069, [5-Cyclopropyl-2-(2-trifluoromethyl-1H-pyrrolo[2,3-b]pyridin-4-yl)-pyrido[3,4-d]pyrimidin-4-yl]-(R)-pyrrolidin-3-yl-amine]: the half-maximal inhibitory concentration (IC50) was less than 100 nM.
Regarding `c1cc(-c2nc(N3CCNCC3)c3c(C4CC4)cncc3n2)cc(N[C@@H]2C[C@H]3CC[C@@H]2O3)n1` (racemic) [Example 2093, (±)-exo-[4-(5-Cyclopropyl-4-piperazin-1-yl-pyrido[3,4-d]pyrimidin-2-yl)-pyridin-2-yl]--7-oxa-bicyclo[2.2.1]hept-2-yl-amine], the IC50 is less than 100 nM.

The term IC50 denotes the concentration at which inhibition is half-maximal.

The record behind these values is US9914730B2, “Azaquinazoline inhibitors of Atypical protein Kinase C” (Ignyta, Inc., priority 2012, dated 2018).
